Square brackets hold non-standard residues; d marks the D form. Peptide text beside a SMILES is read from it. Orn = NCCC[C@H](N)C(=O)O; βAla = NCCC(=O)O
Assays:
BC-1 cells = experiment: MTT assay, deletion and mutant peptides; type: cell-based, human; conditions: BC-1, 64 μM
Excerpt: Fig. 2 Viral and cellular responses to K-Rta peptide; identification of VGN50. a Protein sequence alignment. Homologous protein sequences were searched for with BLAST and extracted from other gamma-herpesviral homologs. The consensus protein sequence is depicted at the bottom of table. b Peptide design. Deletion peptides were designed based on the consensus sequence in a. The TAT protein sequence was used as a cell-penetrating peptide (CPP) and placed downstream from the K-Rta protein sequence. (d-R) D amino acid arginine, (ORN) ornithine, (bAla) beta alanine. c Sub cellular peptide localization. Cy5-labeled peptide 1 was used to track subcellular localization. Nuclei were visualized by DAPI staining. The scale is indicated in the panel. d MTT assays with deletion and mutant peptides. Peptide listed in b were incubated with BC-1 cells and MTT conversion was measured 48 h after incubation. The OD of mock-treated samples were set as 100%, and OD from detergent-treated cells were set as 0%. The amount of each peptide used for incubation is depicted along the x-axis. Mean percentage viability ±SD were calculated for each treatment group (n = 3 samples). Peptide 1 was renamed as VGN50. e Flow cytometry analyses of cell proliferation and apoptosis induction. Cells were incubated with VGN50 or mutant peptide (three alanine substitutions) for 24 h followed by measurements of percentage cell proliferation (Ki67 staining) and apoptosis induction (Annexin V staining). Standard deviation bars are included. (n = 3) Two-way Anova, followed by Sidak’s multiple comparisons test. f The effect of VGN50 on various cancer cell types. MTT assays were performed with the indicated cell lines treated with various VGN50 concentrations. The OD of mock-treated samples were set as 100%, and OD from detergent-treated cells were set as 0%. Mean percentage viability ±SD was calculated for each treatment (n = 3 samples/treatment). g Viability assay with flow cytometry. Cell viability was measured in triplicate with live/dead staining and the cell killing effects on cancer cells was compared with normal peripheral blood mononuclear cells (PBMC) from three healthy donors. Results are presented as mean percentage viability ±SD (n = 3 samples/group). f, g Ordinary one-way Anova, followed by Tukey’s multiple comparisons test. […]
Leukoreduction system chambers (LRS) from healthy donors were purchased from Vitalant. […] Cell death, apoptosis, and proliferation were analyzed by flow cytometry (BD Acuri) after intracellular staining with anti-humanKi67-Alexa488 (Biolegend, 1:100) along with the isotype control antibody, annexin-V-FITC with 7-AAD staining (Biolegend) according to the manufacture’s protocol, Live/dead Fixable Red Dead Cell staining kit (Invitrogen) according to the manufacture’s protocol, or MTT assay. […]

KSHV PAN RNA in BC-1 = experiment: KSHV PAN RNA qRT-PCR (reactivation); type: cell-based; conditions: BC-1, 16 μM, 24 h
Procedure: (§1) Because VGN50 is derived from the KSHV transactivator sequence, we next examined if VGN50 can inhibit KSHV lytic replication by competitively blocking the coactivator binding to K-Rta. To study this, we used the TREx-K-Rta BCBL-1 cell line, in which we can trigger the expression of exogenous Flag-tagged K-Rta in a doxycycline (Dox) inducible manner. TREx-K-Rta BCBL-1 cells were treated with […] VGN50 or mutant peptide, with or without Dox induction. We used approximately one-half of the IC50 concentration of VGN50 to treat the TREx-K-Rta BCBL-1 cells in order to avoid cell toxicity effects that would non-specifically decrease viral gene expression. KSHV gene expression was profiled with a KSHV genome-wide PCR array, using ribosomal rRNA for normalization and as an internal control. Fold activation relative to the uninduced Mut-P-treated sample (not induced: Dox -) was determined and a heatmap for KSHV lytic gene expression was generated (Fig. 3a). […] Immunoblotting was used to confirm the induction of lytic replication by Dox based on exogenous K-Rta protein (Flag-K-Rta) and the expression of two other KSHV lytic proteins (ORF57 and K-bZIP) along with actin and KSHV LANA protein as controls for equal loading and similar viral copy numbers in samples, respectively (Fig. 3b).
(§2) Fig. 3 Effects of VGN50 on KSHV gene transcription and VGN50 binding with SWI/SNF components. a KSHV qRT-PCR array analysis was used to study effects of VGN50 on KSHV gene transcription in a genome-wide manner. Uninduced (−; no doxycycline added) or dox-induced (+; 1 μg/ml) cells were treated with VGN50 or the mutant peptide (Mut-P) at a concentration of 24 μM. Samples were collected at 24 h post-treatment. Expression in uninduced cells was set as 1 for each viral gene and expression shown as fold activation relative to no-Dox samples. Selected cellular genes were also included in the PCR array for comparison. 18S ribosomal RNA was used as an internal control. b KSHV protein expression. Immunoblotting was performed to confirm both endogenous and exogenous K-Rta expression before (not induced) and after induction by Dox treatment (Dox-induced). Latent KSHV protein LANA and actin were used as controls for KSHV copy number (LANA) and loading (actin), respectively. Protein samples were collected 48-h post Dox incubation. c KSHV reactivation by VGN50 incubation. BCBL-1 and BC-1 cell lines were treated with VGN50 (16 μM concentration) and total RNA harvested at 24 h post treatment. KSHV PAN RNA expression was examined by qRT-PCR and relative expression over 18S rRNA is shown. Data are presented as mean ± SD (n = 3). d Purification of recombinant SWI/SNF components. SDS-PAGE analysis of five SWI/SNF components individually prepared from baculovirus-infected Sf9 cells. e A schematic illustration of ELISA assay to evaluate VGN50 and SWI/SNF interaction. f Analysis of VGN50 binding to SWI/SNF components by ELISA. Increasing concentrations of biotin-conjugated VGN50 or Mut-P were incubated in duplicate in an ELISA plate coated with each SWI/SNF component. Peptide binding measured as OD values at 450 nm are shown. Mean OD values were compared between the VGN50 and Mut-P in each concentration using unpaired t-test. **p < 0.01, *p < 0.05, NS no significance. Data are presented as mean ± SD with duplicated samples and repeated three times with different purified protein preps.

KSHV PAN RNA in BCBL-1 = experiment: KSHV PAN RNA qRT-PCR (reactivation); type: cell-based; conditions: BCBL-1, 16 μM, 24 h
Procedure: as §1, §2

## CC(C)C[C@H](NC(=O)CCNC(=O)[C@H](CCCNC(=N)N)NC(=O)[C@H](CCCNC(=N)N)NC(=O)[C@H](CCCNC(=N)N)NC(=O)[C@H](CCCN)NC(=O)[C@H](CCCNC(=N)N)NC(=O)[C@H](CCCNC(=N)N)NC(=O)[C@H](CCCCN)NC(=O)[C@H](CCCCN)NC(=O)[C@H](N)CCCNC(=N)N)C(=O)N[C@@H](CO)C(=O)N[C@@H](CO)C(=O)N[C@@H](C)C(=O)N[C@@H](C)C(=O)N[C@@H](C)C(=O)NCC(=O)N[C@@H](CC(C)C)C(=O)N[C@@H](Cc1ccc(O)cc1)C(=O)N[C@@H](CCC(N)=O)C(=O)N[C@@H](CC(C)C)C(=O)N[C@@H](CC(=O)O)C(=O)N[C@H](C(=O)O)[C@@H](C)O [Mt-P] (H-[dR]KKRR[Orn]RRR[βAla]LSSAAAGLYQLDT-OH; N-terminus and C-terminus assumed)
BC-1 cells
  Reduction of cell viability (MTT) compared to untreated control: 20%
KSHV PAN RNA in BC-1; replicate 1
  KSHV PAN RNA relative expression over 18S rRNA: 1.419e-5
KSHV PAN RNA in BC-1; replicate 2
  KSHV PAN RNA relative expression over 18S rRNA: 1.503e-5
KSHV PAN RNA in BC-1; replicate 3
  KSHV PAN RNA relative expression over 18S rRNA: 1.204e-5
KSHV PAN RNA in BCBL-1; replicate 1
  KSHV PAN RNA relative expression over 18S rRNA: 0.0001238
KSHV PAN RNA in BCBL-1; replicate 2
  KSHV PAN RNA relative expression over 18S rRNA: 0.0001335
KSHV PAN RNA in BCBL-1; replicate 3
  KSHV PAN RNA relative expression over 18S rRNA: 0.0001325

— PMC8639922, “KSHV transactivator-derived small peptide traps coactivators to attenuate MYC and inhibits leukemia and lymphoma cell growth” (Communications Biology, 2021)
